# Measurements: patent US8476455B2, “1-N-phenyl-amino-1h-imidazole derivatives and pharmaceutical compositions containing them” (Laboratoire Theramex, priority 2003, dated 2013)
# Key:
# human aromatase [1] = molecular target: T1, human aromatase (Homo sapiens, UniProt P11511); experiment: Aromatase activity alone, tritiated water method in JEG-3 cells; format: cell-based; conditions: footnote a: aromatase activity alone, nd: not detected, read-out: Aromatase activity IC50 (nM) ± S.E.M.
# T1 construct: The JEG-3 cell line, derived from a human placental choriocarcinoma, constitutively overexpresses human aromatase; endogenous in cells; host or cells: JEG-3 (human placental choriocarcinoma)
# T1 sequence (P11511 1-503): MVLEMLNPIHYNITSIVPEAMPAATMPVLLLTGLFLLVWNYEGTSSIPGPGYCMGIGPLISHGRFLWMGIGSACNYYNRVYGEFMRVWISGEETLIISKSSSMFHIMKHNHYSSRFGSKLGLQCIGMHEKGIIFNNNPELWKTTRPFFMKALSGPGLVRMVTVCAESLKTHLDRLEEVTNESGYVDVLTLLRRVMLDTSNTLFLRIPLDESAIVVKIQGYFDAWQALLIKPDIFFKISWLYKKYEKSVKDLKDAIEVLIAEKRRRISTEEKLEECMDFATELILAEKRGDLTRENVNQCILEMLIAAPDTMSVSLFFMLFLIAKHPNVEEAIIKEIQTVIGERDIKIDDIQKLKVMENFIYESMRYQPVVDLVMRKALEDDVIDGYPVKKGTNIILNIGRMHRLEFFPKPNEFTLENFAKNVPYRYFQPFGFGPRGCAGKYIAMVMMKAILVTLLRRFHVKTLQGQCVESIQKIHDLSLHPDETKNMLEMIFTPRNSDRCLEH
# Description: The JEG-3 cell line, derived from a human placental choriocarcinoma, constitutively overexpresses human aromatase and represents a relevant model for assaying putative aromatase inhibitors in vitro. Aromatase activity was determined by the tritiated water method. In brief, cells were first seeded into 96-well microplates in decomplemented fetal calf serum (dFCS) supplemented medium. 24 hours later, cells were rinsed and fresh medium containing 1β-^3H-androstenedione as aromatase substrate was added together with test compounds at concentrations ranging from 10^−12 M to 10^−5 M. After 2 hours of incubation, a fraction of the medium was transferred to homologous new 96-well microplates and a dextran-coated charcoal solution was added to each well. Following standing on ice for 10 minutes, microplates were centrifuged (1500 g; 4° C.). All steroids, including the radioactive substrate and the newly biosynthesized estrogens, were adsorbed on charcoal; only ^3H-water specifically formed during aromatisation of 1β-^3H-androstenedione, remained in the supernatant. The radioactivity in the supernatant was measured by liquid scintillation counting. In parallel, cell solubilization was performed in ethylenediamine tetraacetate solution. […] Finally, aromatase activity was expressed in fmoles of ^3H-water formed/2 hours/μg DNA and aromatase inhibition as a percentage of control activity without inhibitor.
# human aromatase [2] = molecular target: T1, human aromatase; experiment: Dual aromatase and steroid sulfatase activities in JEG-3 cells: aromatase readout; format: cell-based; conditions: footnote c: dual aromatase and sulfatase activity, nd: not detected, read-out: Aromatase activity IC50 (nM) ± S.E.M.
# Description: Assays were carried out with cells in logarithmic growth phase on 96-well microplates. 24 h before studies, cells were seeded in decomplemented fetal calf serum (dFCS) supplemented medium. The medium was removed 24 h later and cells were rinsed with PBS to eliminate any trace of dFCS. Then, ^3H-E1S was added in dFCS free medium, followed by test compounds at concentrations ranging from 10^−12 M to 10^−5 M. After 4 h of treatment, the medium was transferred into 96-deep-well microplates and centrifuged at 200×g for 10 min to pellet cells before toluene extraction. A fraction of the medium was used for toluene extraction in order to separate the conjugated substrate from non-conjugated products. The radioactivity in the toluene phase was measured by liquid scintillation counting. […] Finally, estrone sulfatase activity was expressed in pmoles of ^3H-E1+^3H-E2 formed/4 hours/mg DNA and estrone sulfatase inhibition as a percentage of control activity without inhibitor.
# In order to evaluate the inhibitory potency of DASI compounds in parallel on both human aromatase and steroid sulfatase activities, a new in vitro model was set up using JEG-3 cells. The experimental conditions of the steroid sulfatase model previously described was adopted with slight modifications: the presence of the two substrates ^3-HE1S and 1β-^3H-androstenedione into the medium and an incubation period of 2 hours. Results were expressed in pmoles of product formed (^3H-E1+^3H-E2 or ^3H2O)/2 hours/mg DNA (Table 1).
Structure (SMILES),IC50 (human aromatase [1]) [nM],melting point [°C],IC50 (human aromatase [2]) [nM]
"N#Cc1ccc(N(Cc2ccc(O)cc2)n2ccnc2)cc1 [Ex 11, 4-[N-(4-hydroxyphenylmethyl)-N-(1H-imidazol-1-yl)amino]benzonitrile]",0.17 ± 0.01,–,–
"N#Cc1ccc(N(Cc2ccc(O)c(Cl)c2)n2ccnc2)cc1 [Ex 12, 4-[N-(3-chloro-4-hydroxyphenylmethyl)-N-(1H-imidazol-1-yl)amino]benzonitrile]",–,195,–
"N#Cc1ccc(N(Cc2ccc(O)c(Br)c2)n2ccnc2)cc1 [Ex 13, 4-[N-(3-bromo-4-hydroxyphenylmethyl)-N-(1H-imidazol-1-yl)amino]benzonitrile]",0.17 ± 0.03,198,0.05 ± 0.02
"COc1cc(CN(c2ccc(C#N)cc2)n2ccnc2)ccc1O [Ex 14, 4-[N-(4-hydroxy-3-methoxyphenylmethyl)-N-(1H-imidazol-1-yl)amino]benzonitrile]",0.21 ± 0.05,215,–
"N#Cc1ccc(N(Cc2c(F)c(F)c(O)c(F)c2F)n2ccnc2)cc1 [Ex 15, 4-[N-(2,3,5,6-tetrafluoro-4-hydroxyphenylmethyl)-N-(1H-imidazol-1-yl)amino]benzonitrile]",–,243,–
"N#Cc1ccc(N(Cc2ccc(O)c(C=O)c2)n2ccnc2)cc1 [Ex 16, 4-[N-(3-formyl-4-hydroxyphenylmethyl)-N-(1H-imidazol-1-yl)amino]benzonitrile]",–,160,–
"N#Cc1ccc(N(Cc2ccc(Cl)nc2)n2ccnc2)cc1 [Ex 18, 4-{N-[(6-chloropyridin-3-yl)methyl]-N-(1H-imidazol-1-yl)amino}benzonitrile]",–,156,–
"N#Cc1ccc(N(Cc2ccc(S(N)(=O)=O)cc2)n2ccnc2)cc1 [Ex 19, 4-{[N-(4-cyanophenyl)-N-(1H-imidazol-1-yl)amino]methyl}benzene sulfonamide]",–,150,–
"N#Cc1ccc(N(Cc2ccc(O)c([N+](=O)[O-])c2)n2ccnc2)cc1 [Ex 20, 4-[N-(4-hydroxy-3-nitrophenylmethyl)-N-(1H-imidazol-1-yl)amino]benzonitrile]",0.3,205,–
"COc1ccc(CN(c2ccc(C#N)cc2)n2ccnc2)cc1C(=O)O [Ex 21, 5-{[N-(4-cyanophenyl)-N-(1H-imidazol-1-yl)amino]methyl}-2-methoxybenzoic acid]",–,187,–
"N#Cc1ccc(N(c2ccc([N+](=O)[O-])cc2)n2ccnc2)cc1 [Ex 22, 4-[N-(1H-imidazol-1-yl)-N-(4-nitrophenyl)amino]benzonitrile]",0.32 ± 0.4,–,–
"N#Cc1ccc(N(C(=O)c2ccc(Cl)nc2)n2ccnc2)cc1 [Ex 23, 6-chloro-N-(4-cyanophenyl)-N-(1H-imidazol-1-yl)nicotinamide]",–,132,–
"N#Cc1ccc(N(C(=O)Cc2ccc(F)cc2)n2ccnc2)cc1 [Ex 24, N-(1H-imidazol-1-yl)-N-(4-cyanophenyl)-2-(4-fluorophenyl)acetamide]",–,131,–
"N#Cc1ccc(N(C(=O)CCc2ccc(O)cc2)n2ccnc2)cc1 [Ex 26, N-(4-cyanophenyl)-3-(4-hydroxyphenyl)-N-(1H-imidazol-1-yl)propanamide]",50.6,172,–
"COc1ccc2c(CC(=O)N(c3ccc(C#N)cc3)n3ccnc3)csc2c1 [Ex 29, N-(4-cyanophenyl)-N-(1H-imidazol-1-yl)-2-(6-methoxy-benzothien-3-yl)acetamide]",–,104,–
"COc1ccc2c(CN(c3ccc(C#N)cc3)n3ccnc3)csc2c1 [Ex 30, 4-{N-[1H-imidazol-1-yl]-N-[(6-methoxy-benzothien-3-yl)methyl]amino}benzonitrile]",–,–,0.06
"N#Cc1ccc(N(C(=O)Cc2csc3cc(O)ccc23)n2ccnc2)cc1 [Ex 34, N-(4-cyanophenyl)-N-(1H-imidazol-1-yl)-2-(6-hydroxy-benzothien-3-yl)acetamide]",–,179,–
"N#Cc1ccc(N(Cc2ccc(O)c(N)c2)n2ccnc2)cc1 [Ex 35, 4-[N-(3-amino-4-hydroxy-phenylmethyl)-N-(1H-imidazol-1-yl)amino]benzonitrile]",–,–,2.2 ± 0.7
"N#Cc1ccc(N(CCOc2ccc(O)cc2)n2ccnc2)cc1 [Ex 36, 4-{N-[2-(4-hydroxyphenoxy)ethyl]-N-(1H-imidazol-1-yl)amino}benzonitrile]",–,188,0.61 ± 0.21
"N#Cc1ccc(N(n2ccnc2)S(=O)(=O)c2ccc(O)cc2)cc1 [Ex 37, N-(4-cyanophenyl)-N-(1H-imidazol-1-yl)-4-hydroxybenzensulfonamide]",–,248,52 ± 9.6
"N#Cc1ccc(N(Cc2cc3ccc(O)cc3s2)n2ccnc2)cc1 [Ex 39, 4-[N-[(6-hydroxy-benzothien-2-yl)methyl]-N-(1H-imidazol-1-yl)amino]benzonitrile]",–,230,–
"N#Cc1ccc(N(c2ccc(N)cc2)n2ccnc2)cc1 [Ex 40, 4-[N-(4-aminophenyl)-N-(1H-imidazol-1-yl)amino]benzonitrile]",0.67 ± 0.1,–,–
"N#Cc1ccc(N(C(=O)c2cc3cc(N)ccc3s2)n2ccnc2)cc1 [Ex 41, 5-Amino-[N-(4-cyanophenyl)-N-(1H-imidazol-1-yl)]-benzothiophene-2-carboxamide]",–,–,4.3
"N#Cc1ccc(N(c2ccc(NS(N)(=O)=O)cc2)n2ccnc2)cc1 [Ex 49, N-{4-[N-(4-cyanophenyl)-N-(1H-imidazol-1-yl)amino]phenyl}sulfamide]",–,121,–
"N#Cc1ccc(N(Cc2ccc(OS(N)(=O)=O)cc2NS(N)(=O)=O)n2ccnc2)cc1 [Ex 54, Sulfamic acid 3-(aminosulfonyl)amino-4-{[N-(4-cyanophenyl)-N-(1H-imidazol-1yl)amino]methyl}phenyl ester]",–,197,–
"N#Cc1ccc(N(C2=CS(=O)(=O)c3cc(OS(N)(=O)=O)ccc32)n2ccnc2)cc1 [Ex 56, Sulfamic acid 3-[N-(4-cyanophenyl)-N-(1H-imidazol-1yl)amino]-1,1-dioxido-benzothien-6-yl ester]",–,172,–
"N#Cc1ccc(N(Cc2csc3cc(OS(N)(=O)=O)ccc23)n2ccnc2)cc1 [Ex 58, Sulfamic acid 3-{[N-(4-cyanophenyl)-N-(1H-imidazol-1yl)amino]methyl}-benzothien-6-yl ester]",–,193,–
"N#Cc1ccc(N(Cc2cc3ccc(OS(N)(=O)=O)cc3s2)n2ccnc2)cc1 [Ex 59, Sulfamic acid 2-{[N-(4-cyanophenyl)-N-(1H-imidazol-1yl)amino]methyl}-benzothien-6-yl ester]",–,178,–
"N#Cc1ccc(N(Cc2ccc3c(c2)CNS(=O)(=O)O3)n2ccnc2)cc1 [Ex 61, 4-[N-[(2,2-dioxido-3,4-dihydro-1,2,3-benzoxathiazin-6-yl)methyl]-N-(1H-imidazol-1-yl)amino]benzonitrile]",1.06 ± 0.21,–,–
"N#Cc1ccc(N(Cc2ccc(O)c(C(=O)O)c2)n2ccnc2)cc1 [Ex 62, 5-{[N-(4-cyanophenyl)-N-(1H-imidazol-1-yl)amino]methyl}-2-hydroxybenzoic acid]",–,–,81.8
